Structures are written as SMILES. “Also recorded” adds a separate entry of the source.

Consider two compounds from patent US20230073777A1, “CYCLIC-AMP RESPONSE ELEMENT BINDING PROTEIN (CBP) AND/OR ADENOVIRAL E1A BINDING PROTEIN OF 300 KDA (P300) DEGRADATION COMPOUNDS AND METHODS OF USE” (CULLGEN (SHANGHAI), INC., priority 2019, published 2023).

The target in assay [1] is T1, P300 (Homo sapiens, UniProt Q09472). Description: Immunoblotting of P300 protein levels in LNCaP or 22RV1 cells. Also on record: LNCaP or 22RV1 cells that express CBP/P300 proteins were treated with GNE-781 or the bivalent compounds; endogenous in cells; host or cells: LNCaP (clone FGC) or 22RV1 cells. It counts as cell-based. In outline:
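P300/CBP levels quantified by chemiluminescent immunoblot band densitometry, normalized against tubulin or vinculin loading controls. Lysates came from LNCaP or 22RV1 cells exposed to compounds or DMSO vehicle for indicated times.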

Assay [2] concerns the target T2, CBP (Homo sapiens, UniProt Q92793).
T2 construct: from tissue; host or cells: 22RV1 subcutaneous xenograft tumours in athymic nude mice
Kind of assay: Pharmacodynamic study, CBP in 22RV1 subcutaneous xenograft tumors. Format: in vivo, Athymic nude mice. The note with it: single dose 40 mg/kg, i.p. or p.o., six hours after administration (FIG. 9). As to the method: (§1) In addition to cultured cells, athymic nude mice bearing 22RV1 subcutaneous xenograft tumors at the right flank were intraperitoneally or orally treated with 40 mg/kg bivalent compounds. Six hours after drug administration, animals were sacrificed for immunoblotting of P300 and CBP in homogenized xenograft tumor masses. […] Moreover, ICR mice were orally treated with 40 mg/kg bivalent compounds. Six hours after drug administration, animals were sacrificed for immunoblotting of CBP in homogenized lung tissues.
(§2) Athymic nude mice bearing 22RV1 subcutaneous xenograft tumors at the right flank were intraperitoneally or orally treated with selected bivalent compounds at 40 mg/kg. Six hours after drug administration, animals were sacrificed, and xenograft tumors were collected for immunoblotting of P300 and CBP.
(§3) All animal experiments were performed under protocols approved by the Institutional Animal Care and Use Committee (IACUC) of Cullgen. Athymic nude mice (male, 5-weeks old) received 5 million 22RV1 cells subcutaneously inoculated at the right flank site. Twenty days following inoculation, tumors were approximately 500 mm^3 in size. Tumor-bearing mice were treated intraperitoneally or via oral gavage with vehicle or bivalent compounds at indicated doses. 6 hours after drug administration, animals were sacrificed, tumors were resected. Small chunks of tumors were homogenized for immunoblotting of P300/CBP and other proteins as indicated. Alternatively, ICR mice (male, 5-weeks old) were treated via oral gavage with vehicle or bivalent compounds at indicated doses. 6 hours after drug administration, animals were sacrificed, lung tissues were resected. Small chunks of lung tissues were homogenized for immunoblotting of CBP and other proteins as indicated.

Assay [3] relates to LNCaP cells. Kind of assay: LNCaP cell viability assay (CellTiter-Glo). Format: cell-based. As to conditions: Homo sapiens. In outline: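 Three-day treatment of LNCaP cells (5000 per well) across a 12-point, 3-fold dilution series starting at 10 μM. ATP luminescence (CellTiter-Glo) relative to untreated controls gave dose-response curves fitted nonlinearly for IC50.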
The target of assay [4] is T1, P300. Description: Pharmacodynamic study, P300 in 22RV1 subcutaneous xenograft tumors. The arrangement: from tissue; host or cells: 22RV1 subcutaneous xenograft tumours in athymic nude mice. The note with it: single dose 40 mg/kg, i.p. or p.o., six hours after administration (FIG. 9). It counts as in vivo, Athymic nude mice. The protocol:
as §1, §2, §3

Assay [5] relates to P300/CBP. Description: Immunoblotting of P300/CBP protein levels in LNCaP or 22RV1 cells. Format: cell-based. As to conditions: LNCaP cells, 10 nM single dose (FIG. 8). The protocol: Specific exemplary bivalent compounds were characterized in LNCaP or 22RV1 cells. LNCaP or 22RV1 cells that express CBP/P300 proteins were treated with GNE-781 or the bivalent compounds disclosed herein (P-001 to P-174) for indicated hours. Cells were collected, lysed and subject to immunoblotting using an antibody specific to P300 or CBP proteins. Tubulin or vinculin was included as the loading control. DMSO was used as the negative control.
Cultured cells or tissue chunks were washed with cold PBS once and lysed in cold RIPA buffer supplemented with protease inhibitors and phosphatase inhibitors (Beyotime Biotechnology). The solutions were then incubated at 4° C. for 30 minutes with gentle agitation to fully lyse cells. Cell lysates were centrifuged at 13,000 rpm for 10 minutes at 4° C. and pellets were discarded. Total protein concentrations in the lysates were determined by BCA assays (Beyotime Biotechnology). Cell lysates were mixed with Laemmli loading buffer to 1× and heated at 99° C. for 5 min. Proteins were resolved on SDS-PAGE and visualized by chemiluminescence. Images were taken by a ChemiDoc MP Imaging system (Bio-Rad). Protein bands were quantitated using the accompanied software provided by Bio-Rad.

The subject of assay [6] is NCI-H929. Kind of assay: Cell viability assay, NCI-H929. The note with it: Homo sapiens, NCI-H929, Multiple Myeloma. It counts as cell-based. The protocol: (§4) Cells were seeded at a density of 5000 cells per well in 96-well assay plates and treated with test compounds following a 12-point 3-fold serial dilution. Three days later, cell viability was determined using the CellTiter-Glo assay kit according to the manufacturer's instructions. The dose-response curves were determined and IC50 values were calculated using the GraphPad Prism software following a nonlinear regression (least squares fit) method.
(§5) The IC50 value of each compound was determined as described in FIG. 4 and calculated using the GraphPad Prism 5.0 software.

The subject of assay [7] is Pfeiffer. Description: Cell viability assay, Pfeiffer. The note with it: Homo sapiens, Diffuse large B-cell lymphoma. It counts as cell-based. As to the method: as §4, §5
In assay [8] the test system is HEL. Description: Cell viability assay, HEL. It counts as cell-based. The note with it: Homo sapiens, Erythroleukemia. As to the method:
as §4, §5

In assay [9] the test system is Karpas-422. Kind of assay: Cell viability assay, Karpas-422. Format: cell-based. The note with it: Homo sapiens, Karpas-422, Diffuse large B-cell lymphoma. The protocol:
as §4, §5

In assay [10] the test system is MEG-01. Kind of assay: Cell viability assay, MEG-01. The note with it: Homo sapiens, MEG-01, Chronic myeloid leukemia. It counts as cell-based. As to the method:
as §4, §5

Assay [11] deals with MM.1R. Kind of assay: Cell viability assay, MM.1R. It counts as cell-based. The note with it: Multiple Myeloma. The protocol:
as §4, §5

Assay [12] deals with L-363. Description: Cell viability assay, L-363. It counts as cell-based. The note with it: Homo sapiens, L-363, Multiple myeloma. As to the method: as §4, §5
Assay [13] deals with 22Rv1. Description: Cell viability assay, 22Rv1. The note with it: Homo sapiens, 22Rv1, Prostate carcinoma. Format: cell-based. As to the method:
as §4, §5

The subject of assay [14] is MV4; 11. Kind of assay: Cell viability assay, MV4; 11. It counts as cell-based. As to conditions: Homo sapiens, 11, Acute monocytic leukemia. The protocol: as §4, §5
Assay [15] has as its system NOMO-1. Description: Cell viability assay, NOMO-1. Format: cell-based. The note with it: Homo sapiens, NOMO-1, Acute monocytic leukemia. As to the method:
as §4, §5

Assay [16] has as its system LK-2. Description: Cell viability assay, LK-2. Format: cell-based. The note with it: Homo sapiens, LK-2, Non-small cell lung cancer. As to the method: as §4, §5
Assay [17] relates to HL-60. Kind of assay: Cell viability assay, HL-60. As to conditions: Homo sapiens, HL-60, Acute myeloid leukemia. It counts as cell-based. The protocol: as §4, §5
Assay [18] concerns WSU-DLCL2. Kind of assay: Cell viability assay, WSU-DLCL2. Format: cell-based. As to conditions: Homo sapiens, WSUDLCL2, WSU-DLCL2, Diffuse large B-cell lymphoma. As to the method: as §4, §5
Assay [19] relates to VCaP. Description: Cell viability assay, VCaP. As to conditions: Homo sapiens, Prostate carcinoma. Format: cell-based. The protocol:
as §4, §5

The subject of assay [20] is MCF-7. Description: Cell viability assay, MCF-7. Format: cell-based. The note with it: Homo sapiens, MCF7, MCF-7, breast carcinoma. As to the method: as §4, §5
The subject of assay [21] is NCI-H520. Description: Cell viability assay, NCI-H520. The note with it: Homo sapiens, NCI-H520, Non-small cell lung cancer. It counts as cell-based. The protocol:
as §4, §5

The subject of assay [22] is MM.1S. Kind of assay: Cell viability assay, MM.1S. It counts as cell-based. The note with it: Homo sapiens, MM1.S, Multiple Myeloma. As to the method: as §4, §5
Assay [23] concerns RPMI-8226. Description: Cell viability assay, RPMI-8226. Format: cell-based. As to conditions: Homo sapiens, RPMI-8226, Multiple myeloma. The protocol: as §4, §5
Assay [24] relates to SK-BR-3. Description: Cell viability assay, SK-BR-3. It counts as cell-based. As to conditions: Homo sapiens, SK-BR-3, breast carcinoma. The protocol: as §4, §5
In assay [25] the test system is NCI-H1703. Description: Cell viability assay, NCI-H1703. Format: cell-based. As to conditions: Homo sapiens, NCI-H1703, Non-small cell lung cancer. As to the method: as §4, §5
Assay [26] concerns AMO-1. Kind of assay: Cell viability assay, AMO-1. As to conditions: Homo sapiens, AMO1, AMO-1, Multiple Myeloma. Format: cell-based. As to the method: as §4, §5
Assay [27] relates to SU-DHL-1. Description: Cell viability assay, SU-DHL-1. Format: cell-based. The note with it: Homo sapiens, SU-DHL-1, Diffuse large B-cell lymphoma. As to the method:
as §4, §5

Assay [28] deals with Kasumi-1. Description: Cell viability assay, Kasumi-1. It counts as cell-based. The note with it: Homo sapiens, Kasumi-1, Acute myeloid leukemia. The protocol:
as §4, §5

The test system of assay [29] is MOLM-13. Kind of assay: Cell viability assay, MOLM-13. It counts as cell-based. As to conditions: Homo sapiens, MOLM-13, Acute monocytic leukemia. As to the method:
as §4, §5

T1 sequence (Q09472 whole entry): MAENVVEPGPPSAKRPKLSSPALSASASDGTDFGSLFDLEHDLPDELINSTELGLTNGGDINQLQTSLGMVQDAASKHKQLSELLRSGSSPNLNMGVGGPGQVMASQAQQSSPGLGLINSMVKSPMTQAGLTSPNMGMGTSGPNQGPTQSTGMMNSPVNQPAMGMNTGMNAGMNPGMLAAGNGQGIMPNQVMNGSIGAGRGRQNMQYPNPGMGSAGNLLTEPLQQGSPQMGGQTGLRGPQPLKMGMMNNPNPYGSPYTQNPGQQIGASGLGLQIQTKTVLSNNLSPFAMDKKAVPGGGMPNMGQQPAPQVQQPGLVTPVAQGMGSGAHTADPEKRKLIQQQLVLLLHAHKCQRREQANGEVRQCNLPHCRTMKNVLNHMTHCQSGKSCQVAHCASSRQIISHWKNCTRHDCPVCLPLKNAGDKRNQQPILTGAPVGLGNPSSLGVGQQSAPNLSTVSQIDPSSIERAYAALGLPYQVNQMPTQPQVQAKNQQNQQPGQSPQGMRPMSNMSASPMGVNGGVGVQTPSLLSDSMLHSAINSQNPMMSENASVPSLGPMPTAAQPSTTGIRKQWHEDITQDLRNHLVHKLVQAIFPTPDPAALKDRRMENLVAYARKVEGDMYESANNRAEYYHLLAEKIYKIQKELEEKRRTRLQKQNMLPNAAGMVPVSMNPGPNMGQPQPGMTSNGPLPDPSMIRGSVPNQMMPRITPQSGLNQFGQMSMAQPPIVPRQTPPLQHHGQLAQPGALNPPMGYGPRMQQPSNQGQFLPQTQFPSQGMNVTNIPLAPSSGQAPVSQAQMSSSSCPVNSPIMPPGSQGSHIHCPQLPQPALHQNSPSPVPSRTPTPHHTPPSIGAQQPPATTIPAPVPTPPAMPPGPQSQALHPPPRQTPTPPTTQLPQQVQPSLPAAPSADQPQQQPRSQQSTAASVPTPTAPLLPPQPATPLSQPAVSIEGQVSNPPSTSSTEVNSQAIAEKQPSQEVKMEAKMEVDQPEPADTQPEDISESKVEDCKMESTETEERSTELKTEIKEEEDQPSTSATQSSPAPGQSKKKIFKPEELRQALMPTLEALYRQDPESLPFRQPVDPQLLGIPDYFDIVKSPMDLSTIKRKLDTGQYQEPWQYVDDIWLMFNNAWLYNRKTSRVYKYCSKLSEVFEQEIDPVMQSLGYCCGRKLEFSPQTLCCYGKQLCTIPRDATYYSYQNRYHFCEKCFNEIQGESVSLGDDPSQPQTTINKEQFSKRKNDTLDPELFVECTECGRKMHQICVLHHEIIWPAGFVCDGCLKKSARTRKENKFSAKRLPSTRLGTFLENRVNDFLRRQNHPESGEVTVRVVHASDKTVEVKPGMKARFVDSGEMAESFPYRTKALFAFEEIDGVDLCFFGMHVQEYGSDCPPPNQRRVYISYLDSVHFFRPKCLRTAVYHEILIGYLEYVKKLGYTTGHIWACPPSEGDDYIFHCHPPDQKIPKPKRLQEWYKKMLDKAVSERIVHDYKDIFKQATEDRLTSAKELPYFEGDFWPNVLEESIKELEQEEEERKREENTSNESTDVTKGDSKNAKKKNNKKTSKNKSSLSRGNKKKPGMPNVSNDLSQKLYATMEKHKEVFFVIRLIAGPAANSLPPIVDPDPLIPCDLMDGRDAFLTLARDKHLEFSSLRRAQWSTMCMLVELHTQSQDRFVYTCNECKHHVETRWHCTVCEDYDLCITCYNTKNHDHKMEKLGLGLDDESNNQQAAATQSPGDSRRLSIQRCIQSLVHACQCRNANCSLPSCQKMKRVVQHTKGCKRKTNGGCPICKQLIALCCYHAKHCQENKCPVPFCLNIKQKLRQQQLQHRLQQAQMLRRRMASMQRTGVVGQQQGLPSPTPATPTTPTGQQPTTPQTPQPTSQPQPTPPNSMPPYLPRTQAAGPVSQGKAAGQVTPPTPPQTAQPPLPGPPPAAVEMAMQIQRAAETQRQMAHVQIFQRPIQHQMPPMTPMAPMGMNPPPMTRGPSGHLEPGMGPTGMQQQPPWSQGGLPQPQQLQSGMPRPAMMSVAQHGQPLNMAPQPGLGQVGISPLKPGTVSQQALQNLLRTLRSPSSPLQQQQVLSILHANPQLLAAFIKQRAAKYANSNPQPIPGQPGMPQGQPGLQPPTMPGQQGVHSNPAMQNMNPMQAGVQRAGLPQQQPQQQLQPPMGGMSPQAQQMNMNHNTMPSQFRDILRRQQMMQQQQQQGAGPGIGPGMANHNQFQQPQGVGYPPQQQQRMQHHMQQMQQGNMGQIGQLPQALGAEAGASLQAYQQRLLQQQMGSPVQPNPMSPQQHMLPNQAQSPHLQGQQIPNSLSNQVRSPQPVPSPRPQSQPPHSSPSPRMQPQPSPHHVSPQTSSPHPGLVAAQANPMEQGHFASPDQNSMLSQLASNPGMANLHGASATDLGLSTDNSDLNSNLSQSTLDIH
T2 sequence (Q92793 whole entry): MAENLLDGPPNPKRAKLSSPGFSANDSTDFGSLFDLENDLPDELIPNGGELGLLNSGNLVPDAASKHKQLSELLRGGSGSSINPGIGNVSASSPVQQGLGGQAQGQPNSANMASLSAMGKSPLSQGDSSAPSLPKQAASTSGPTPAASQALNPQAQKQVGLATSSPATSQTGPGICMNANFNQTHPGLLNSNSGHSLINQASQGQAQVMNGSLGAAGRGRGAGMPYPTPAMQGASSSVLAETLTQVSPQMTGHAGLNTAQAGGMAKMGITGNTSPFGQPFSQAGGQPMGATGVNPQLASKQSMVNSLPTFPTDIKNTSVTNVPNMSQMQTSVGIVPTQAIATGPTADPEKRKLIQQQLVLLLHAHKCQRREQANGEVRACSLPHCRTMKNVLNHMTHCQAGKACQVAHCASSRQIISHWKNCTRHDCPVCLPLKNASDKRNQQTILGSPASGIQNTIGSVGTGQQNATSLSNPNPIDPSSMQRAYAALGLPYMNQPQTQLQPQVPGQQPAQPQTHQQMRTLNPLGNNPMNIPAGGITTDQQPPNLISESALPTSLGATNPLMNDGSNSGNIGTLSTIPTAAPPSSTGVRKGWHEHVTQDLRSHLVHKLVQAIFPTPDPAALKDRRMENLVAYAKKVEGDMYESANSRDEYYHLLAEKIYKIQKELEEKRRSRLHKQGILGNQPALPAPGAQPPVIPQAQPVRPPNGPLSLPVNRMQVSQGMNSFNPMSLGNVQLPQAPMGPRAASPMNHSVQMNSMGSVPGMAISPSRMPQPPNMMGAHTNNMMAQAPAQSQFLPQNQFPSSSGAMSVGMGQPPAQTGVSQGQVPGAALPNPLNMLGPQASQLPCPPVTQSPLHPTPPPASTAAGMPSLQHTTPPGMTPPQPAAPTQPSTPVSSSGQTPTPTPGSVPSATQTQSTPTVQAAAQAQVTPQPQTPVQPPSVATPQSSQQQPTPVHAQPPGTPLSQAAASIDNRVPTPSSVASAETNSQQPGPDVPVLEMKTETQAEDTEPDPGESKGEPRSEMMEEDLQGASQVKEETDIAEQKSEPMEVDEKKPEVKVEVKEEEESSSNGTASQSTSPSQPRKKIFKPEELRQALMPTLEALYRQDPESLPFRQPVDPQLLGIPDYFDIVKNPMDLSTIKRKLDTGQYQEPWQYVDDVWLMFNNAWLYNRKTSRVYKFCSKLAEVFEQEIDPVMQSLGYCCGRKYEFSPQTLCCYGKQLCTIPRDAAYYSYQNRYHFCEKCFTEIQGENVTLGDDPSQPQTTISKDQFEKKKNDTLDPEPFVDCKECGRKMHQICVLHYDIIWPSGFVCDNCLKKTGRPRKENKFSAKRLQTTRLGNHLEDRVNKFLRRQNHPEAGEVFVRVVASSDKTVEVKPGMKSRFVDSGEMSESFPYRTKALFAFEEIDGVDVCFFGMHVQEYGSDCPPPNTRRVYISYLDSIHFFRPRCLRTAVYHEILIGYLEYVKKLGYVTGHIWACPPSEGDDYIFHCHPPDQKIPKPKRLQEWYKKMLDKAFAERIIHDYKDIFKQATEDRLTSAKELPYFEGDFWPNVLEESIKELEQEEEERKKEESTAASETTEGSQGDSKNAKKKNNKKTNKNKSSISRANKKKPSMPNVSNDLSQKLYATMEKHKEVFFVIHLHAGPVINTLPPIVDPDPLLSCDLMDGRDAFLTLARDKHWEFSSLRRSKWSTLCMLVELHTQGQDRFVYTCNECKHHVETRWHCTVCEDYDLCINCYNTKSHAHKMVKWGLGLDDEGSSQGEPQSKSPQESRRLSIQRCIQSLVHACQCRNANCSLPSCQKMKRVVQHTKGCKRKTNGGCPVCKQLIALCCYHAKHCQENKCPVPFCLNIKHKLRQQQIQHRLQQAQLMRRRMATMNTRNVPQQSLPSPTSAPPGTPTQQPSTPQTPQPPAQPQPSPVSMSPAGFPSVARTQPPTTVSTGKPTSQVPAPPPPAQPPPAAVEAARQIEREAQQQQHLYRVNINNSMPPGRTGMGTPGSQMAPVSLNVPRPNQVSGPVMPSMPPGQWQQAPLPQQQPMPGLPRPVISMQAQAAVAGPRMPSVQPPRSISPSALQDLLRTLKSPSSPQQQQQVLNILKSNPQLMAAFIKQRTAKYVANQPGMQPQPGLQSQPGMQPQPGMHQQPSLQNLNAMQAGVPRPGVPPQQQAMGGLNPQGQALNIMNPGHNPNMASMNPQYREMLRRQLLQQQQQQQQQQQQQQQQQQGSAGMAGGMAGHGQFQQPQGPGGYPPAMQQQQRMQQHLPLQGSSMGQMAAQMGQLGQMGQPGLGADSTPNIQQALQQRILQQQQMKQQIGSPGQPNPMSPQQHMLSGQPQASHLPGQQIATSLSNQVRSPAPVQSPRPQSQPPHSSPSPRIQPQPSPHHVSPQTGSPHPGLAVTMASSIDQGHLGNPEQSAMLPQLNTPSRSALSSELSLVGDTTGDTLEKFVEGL

Regarding `CC(=O)N1CCc2c(c(N3CCCc4cc(-c5cnn(C)c5)c(C(F)F)cc43)nn2C2CCN(C(=O)CCCCCNc3cccc4c3C(=O)N(C3CCC(=O)NC3=O)C4=O)CC2)C1` (stereo not shown) [P-100, 4-((6-(4-(5-acetyl-3-(7-(difluoromethyl)-6-(1-methyl-1H-pyrazol-4-yl)-3,4-dihydroquinolin-1(2H)-yl)-4,5,6,7-tetrahydro-1H-pyrazolo[4,3-c]pyridin-1-yl)piperidin-1-yl)-6-oxohexyl)amino)-2-(2,6-dioxopiperidin-3-yl)isoindoline-1,3-dione], in assay [1] (LNCaP or 22RV1 cells, various concentrations (FIG. 7)), the “P300 protein levels, dependence on interaction with cereblon” value was “reduced P300 protein levels in a concentration-dependent manner”. Also, the inhibition at 0.01 µM in assay [1] (percentage of inhibition of p300 at 10 nM (Table 3), read-out: Degradation (10 nM)) is above 80%. Besides, the “CBP protein levels in 22RV1 xenograft tumors” value in assay [2] is listed as “significantly reducing”. The IC50 in assay [3] (72 h, LNCaP prostate cancer cell viability inhibition, 3 days, CellTiter-Glo (Table 3)) came out at 0.9 nM. Besides, in assay [4], the “P300 protein levels in 22RV1 xenograft tumors” value was “significantly reducing”. In [5], the “degradation of P300/CBP in combination with pomalidomide, MG-132, Bortezomib or MLN4924” value is on record as “compromised; also recorded: neutralized”.
For `CNC(=O)N1CCc2c(c(N3CCCc4cc(-c5cnn(C)c5)c(C(F)F)cc43)nn2C2CCOCC2)C1` [GNE-781, reference compound], the concentration for half-maximal inhibition (IC50) in assay [6] is 15.6 nM; in [7], 132 nM; in [8] it was above 10000 nM; in assay [9] it was above 10000 nM; in assay [10], above 10000 nM; in assay [11], 13.2 nM. Moreover, the IC50 is above 1000 nM in assay [12]; 1680 nM in [13]; above 10000 nM in assay [14]; above 10000 nM in assay [15]; 2710 nM in [16]; above 10000 nM in [17]. The IC50 in assay [18] is 14 nM; in assay [19], 723 nM; in assay [20] it was 2390 nM; in assay [21], 5380 nM; in assay [22], 12.8 nM; in [23] it was 10.3 nM. The IC50 in assay [24] was above 10000 nM; in [25] it was above 10000 nM; in assay [3] (cell viability, LNCaP clone FGC, Prostate carcinoma (Table 4)), 4170 nM; in assay [26] it was 138 nM; in assay [27] it was above 1000 nM; in assay [28] it was 346 nM. The IC50 in assay [29] is above 10000 nM.
